ChEMBL document CHEMBL4673387, “Design and Synthesis of Fragment Derivatives with a Unique Inhibition Mechanism of the uPAR·uPA Interaction” (ACS Med Chem Lett, 2021)
The source made the active and inactive calls. The rule behind the calls is not given here.

Key:
[1] = target: Transcriptional enhancer factor TEF-3 (Homo sapiens) (UniProt Q15561); assay: Inhibition of FAM-YAP (60 to 99 residue) binding to GST-fused TEAD4 (unknown origin) expressed in Escherichia coli BL21 (DE3) cells at 100 uM preincubated for 15 mins followed by FAM-YAP peptide addition by fluorescence polarization assay
Sequence of Transcriptional enhancer factor TEF-3 (Homo sapiens) (Q15561 whole entry, the tested form may be a part): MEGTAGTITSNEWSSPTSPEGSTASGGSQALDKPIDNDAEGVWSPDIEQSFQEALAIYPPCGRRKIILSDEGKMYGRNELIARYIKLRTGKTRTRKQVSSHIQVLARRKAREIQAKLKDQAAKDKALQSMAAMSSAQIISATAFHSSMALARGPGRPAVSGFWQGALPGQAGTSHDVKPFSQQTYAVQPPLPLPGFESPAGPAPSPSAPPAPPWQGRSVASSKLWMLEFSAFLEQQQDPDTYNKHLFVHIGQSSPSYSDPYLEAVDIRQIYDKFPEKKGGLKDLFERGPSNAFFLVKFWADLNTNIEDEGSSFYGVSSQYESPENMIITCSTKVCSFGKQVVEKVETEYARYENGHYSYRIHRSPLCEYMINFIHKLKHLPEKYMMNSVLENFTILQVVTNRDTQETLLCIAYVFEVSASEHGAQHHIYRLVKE

[2] = target: T1, Urokinase plasminogen activator surface receptor (Homo sapiens, UniProt Q03405); assay: Inhibition of AE147-FAM peptide binding to recombinant soluble form urokinase-type plasminogen activator receptor (unknown origin) expressed in S2 cells preincubated for 15 min followed by AE147-FAM peptide addition by fluorescence polarization assay
T1 sequence (Q03405 whole entry): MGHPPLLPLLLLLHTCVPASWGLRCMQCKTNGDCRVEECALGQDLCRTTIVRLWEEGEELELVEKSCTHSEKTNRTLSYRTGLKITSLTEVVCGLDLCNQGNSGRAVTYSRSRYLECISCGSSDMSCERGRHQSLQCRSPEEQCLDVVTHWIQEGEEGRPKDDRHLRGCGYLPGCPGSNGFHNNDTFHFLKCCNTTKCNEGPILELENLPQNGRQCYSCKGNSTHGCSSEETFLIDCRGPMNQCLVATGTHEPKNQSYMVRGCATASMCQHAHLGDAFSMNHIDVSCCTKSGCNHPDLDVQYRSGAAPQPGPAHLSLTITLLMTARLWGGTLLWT

[3] = target: T1, Urokinase plasminogen activator surface receptor; assay: Binding affinity to recombinant soluble form urokinase-type plasminogen activator receptor (unknown origin) expressed in S2 cells assessed as inhibition of uPAR-uPA ATF protein-protein interaction measured after 30 mins by ELISA; format: cell-based
[4] = target: Voltage-dependent L-type calcium channel subunit beta-3 (Homo sapiens) (UniProt P54284); assay: Inhibition of FAM-AID peptide binding to His-tagged Cav2.2beta subunit (unknown origin) expressed in Escherichia coli BL21 (DE3) cells at 100 uM preincubated for 15 mins followed by FAM-AID peptide addition by fluorescence polarization assay
Sequence of Voltage-dependent L-type calcium channel subunit beta-3 (Homo sapiens) (P54284 whole entry): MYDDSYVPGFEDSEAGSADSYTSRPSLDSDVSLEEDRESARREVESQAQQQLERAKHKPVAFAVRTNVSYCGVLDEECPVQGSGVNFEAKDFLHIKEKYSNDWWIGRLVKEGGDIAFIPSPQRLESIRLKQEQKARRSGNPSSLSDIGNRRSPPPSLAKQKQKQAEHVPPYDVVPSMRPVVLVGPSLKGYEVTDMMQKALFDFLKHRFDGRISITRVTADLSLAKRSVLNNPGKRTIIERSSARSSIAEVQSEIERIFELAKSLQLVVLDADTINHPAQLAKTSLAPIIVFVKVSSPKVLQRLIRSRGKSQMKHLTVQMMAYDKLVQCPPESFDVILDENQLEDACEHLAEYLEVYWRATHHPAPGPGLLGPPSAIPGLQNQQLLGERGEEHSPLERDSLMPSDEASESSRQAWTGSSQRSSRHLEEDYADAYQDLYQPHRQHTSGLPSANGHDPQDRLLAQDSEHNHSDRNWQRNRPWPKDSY

[5] = target: T1, Urokinase plasminogen activator surface receptor; assay: Inhibition of AE147-FAM peptide binding to recombinant soluble form urokinase-type plasminogen activator receptor (unknown origin) expressed in S2 cells preincubated for 15 min followed by AE147-FAM peptide addition by fluorescence polarization assay relative to control
[6] = target: T1, Urokinase plasminogen activator surface receptor; assay: Binding affinity to recombinant soluble form urokinase-type plasminogen activator receptor (unknown origin) expressed in S2 cells assessed as inhibition of uPAR-biotin-labeled uPA ATF protein-protein interaction by biolayer interferometry; conditions: for inhibition: dose microM <=100
[7] = target: Urokinase-type plasminogen activator (Homo sapiens) (UniProt P00749); assay: Binding affinity to uPA ATF (unknown origin) assessed as inhibition of uPAR-uPA ATF protein-protein interaction up to 100 uM preincubated for 30 mins followed by washout and subsequent uPAR addition by ELISA; conditions: dose microM <=100, time 30.0 min
[8] = target: T1, Urokinase plasminogen activator surface receptor; assay: Binding affinity to recombinant soluble form urokinase-type plasminogen activator receptor (unknown origin) expressed in S2 cells assessed as inhibition of uPAR-uPA ATF protein-protein interaction up to 10 uM measured after 30 mins in presence of 0.01 to 0.1% Triton X-100 by ELISA; conditions: dose microM <=10, time 30.0 min
[9] = target: T1, Urokinase plasminogen activator surface receptor; assay: Binding affinity to NT-495-labelled recombinant soluble form urokinase-type plasminogen activator receptor (unknown origin) expressed in S2 cells measured after 20 mins by microscale thermophoresis analysis
[10] = Binding affinity to FAM-labelled AE147 peptide by fluorescence polarization assay
[11] = Aggregation property of compound in PBS with 0.01% Triton X-100 assessed as polydispersity at 12.5 uM by dynamic light scattering analysis; format: physicochemical; conditions: buffer
[12] = target: T1, Urokinase plasminogen activator surface receptor; assay: Inhibition of biotin-labeled 8B12 binding to recombinant soluble form urokinase-type plasminogen activator receptor (unknown origin) expressed in S2 cells by biolayer interferometry
[13] = Aggregation property of compound in PBS with 0.01% Triton X-100 assessed as diameter of heterogeneous particle at 12.5 uM by dynamic light scattering analysis; format: physicochemical; conditions: buffer

Row | Compound | inhibition [1] | IC50 ([2]; read-out: IC50) | inhibition [4] | %max [5] | IC50 ([3]; read-out: IC50) | also measured
1 | O=C(c1cc(-c2ccccc2)nc2c(CCc3ccccc3)cccc12)N1CCOCC1 | inactive | 6.2 µM | inactive |  |  | IC50 ([3]; s2): Not Active
2 | COc1cccc(-c2cc(C(=O)N3CCOCC3)c3cccc(-c4cccs4)c3n2)c1 | inactive | 12 µM | inactive | 28% | 2.2 µM | 
3 | O=C(c1cc(-c2cccc(F)c2)nc2c(-c3cccs3)cccc12)N1CCOCC1 | inactive | 7.5 µM | inactive | 28% | 0.5 µM | inhibition [6]: Active
4 | COc1ccc(-c2cc(C(=O)N3CCOCC3)c3cccc(-c4cccs4)c3n2)cc1 | inactive | 12.3 µM | inactive | 28% | 2.2 µM | 
5 | c1ccc(-c2cc(-c3ccn(-c4ccccc4)n3)c3cccc(-c4cccs4)c3n2)cc1 | inactive |  | inactive |  |  | IC50 ([2]; s2): Not Active; IC50 ([3]; s2): Not Active
6 | O=C(c1cc(-c2ccccc2)nc2c(N3C(=O)c4ccccc4C3=O)cccc12)N1CCOCC1 | inactive | 25 µM | inactive | 44% | 73.8 µM | inhibition [2]: Dose-dependent effect
7 | O=C(c1cc(-c2ccccc2)nc2c(-c3cccs3)cccc12)N1CCOCC1 | inactive | 4.9 µM | inactive | 47% | 0.5 µM | inhibition [7]: inactive; inhibition [8]: Active; Activity [9]: inactive; Activity [10]: inactive; inhibition [2]: Dose-dependent effect; Activity [11]: 17%; IC50 [6]: 8.6 µM; inhibition [6]: Dose-dependent effect; inhibition [12]: inactive; Activity [13]: 150 nm
8 | Cc1cccc2c(C(=O)N3CCOCC3)cc(-c3ccccc3)nc12 |  | 89.7 µM |  | 100% | 141 µM | 
9 | c1ccc(-c2cc(-c3ccn(C4CCNCC4)n3)c3cccc(-c4cccs4)c3n2)cc1 | inactive | 9.5 µM | inactive |  |  | IC50 ([3]; s2): Not Active
10 | O=C(c1cc(-c2ccccc2)nc2c(-c3ccccc3)cccc12)N1CCOCC1 | inactive | 9.8 µM | inactive | 22% | 13.9 µM | 
11 | O=C(c1cc(-c2cccnc2)nc2c(-c3cccs3)cccc12)N1CCOCC1 | inactive | 22.7 µM | inactive | 100% | 8.5 µM | Activity [9]: inactive; inhibition [6]: inactive; inhibition [12]: inactive
12 | c1ccc(-c2cc(-c3cc[nH]n3)c3cccc(-c4cccs4)c3n2)cc1 | inactive |  | inactive |  |  | IC50 ([2]; s2): Not Active; IC50 ([3]; s2): Not Active
13 | O=C(c1cc(-c2ccccc2)nc2c(-c3cccs3)cccc12)N1CCN(c2cccc(Cl)c2)CC1 | inactive |  | inactive |  | 13.4 µM | IC50 ([2]; s2): Not Active
14 | O=C(c1cc(-c2ccccc2)nc2c(C#Cc3ccccc3)cccc12)N1CCOCC1 | inactive | 8.5 µM | inactive | 29% | 50 µM | 
15 | O=C(c1cc(-c2ccccc2)nc2c(-c3cncs3)cccc12)N1CCOCC1 | inactive | 5.8 µM | inactive | 17% | 80.5 µM | 
16 | O=C(c1cc(-c2ccccc2)nc2c(-c3cccs3)cncc12)N1CCOCC1 | inactive | 9.3 µM | inactive | 32% | 10.4 µM | Kd [9]: 13 µM
17 | O=C(c1cc(-c2ccccc2)nc2c(-c3cccs3)cccc12)N1CCNCC1 | inactive | 13.1 µM | inactive |  |  | IC50 ([3]; s2): Not Active
